Test results: patent publication US20080033026A1, “Antimicrobial compositions, methods and systems” (priority 2006, published 2008)

Legend:
Type in all cases: cell-based
[1] = system: Candida albicans (ATCC 10231); experiment: MIC and MBC determination (broth dilution)
Description: (§1) The determination of the MIC and MBC of 9-decenoic acid conformed to the procedure printed in the Federal Register, June 1994 and the present NCCLS M11-A4 protocol. Challenge organisms were prepared as follows. The MIC and MBC of 9-decenoic acid and the methyl ester of 9-decenoic acid were determined for the following challenge organisms: Staphylococcus aureus (ATCC 6538), Pseudomonas aeruginosa (ATCC 15442), Staphylococcus epidermidis (ATCC 12228), Klebsiella pneumoniae (ATCC 4352), Escherichia coli 0157:H7 (ATCC 43895) and Candida albicans (ATCC 10231). Stock cultures of each organism were transferred onto suitable culture media, Mueller-Hinton Agar (MHA) plates, and incubated for 24 hours (+2 hours) at 37° C. (+2° C.). On the day of the test, the top of at least three to five well-isolated colonies were transferred via wire loop to a tube containing 4 to 5 ml of Trypticase Soy Broth (TSB). The TSB culture was incubated for 2 to 6 hours and turbidity was adjusted with sterile saline to achieve the turbidity of a McFarland 0.5 Standard.
(§2) The concentrated 9-decenoic acid (97%) was diluted in Mueller-Hinton Broth (MHB) to yield a 25,000 ppm stock solution of the 9-decenoic acid. For each organism, 12 dilutions of the 9-decenoic acid in MHB were prepared ranging from 0.25% to 0.00049%. The test solution of the methyl ester of 9-decenoic acid was formulated in the same manner.
(§3) A 2-ml aliquot of appropriately diluted 9-decenoic acid solution or methyl ester of 9-decenoic acid was placed in each tube. Each tube was inoculated with 0.05 ml of a 1:10 dilution of one challenge organism. Tubes were incubated at 37° C. (±2° C.) for 20-24 hours and observed for microbial growth visually and by spectrophotometer. […] (±2° C.) for 20-24 hours and visually observed for growth.
(§4) Controls were run for sterility, viability and organism confirmation. It was determined that all cultures were viable and pure.
(§5) The MBC was defined as the concentration of 9-decenoic acid or the methyl ester of 9-decenoic acid that completely eradicated viable organisms from the test system.

[2] = system: Escherichia coli 0157:H7 (ATCC 43895); experiment: MIC and MBC determination (broth dilution)
Description: as §1, §2, §3, §4, §5

[3] = system: Klebsiella pneumoniae (ATCC 4352); experiment: MIC and MBC determination (broth dilution); conditions: Mueller-Hinton Broth, 20-24 h, 37° C.
Description: as §1, §2, §3, §4, §5

[4] = system: Pseudomonas aeruginosa (ATCC 15442); experiment: MIC and MBC determination (broth dilution); conditions: Mueller-Hinton Broth, 20-24 h, 37° C.
Description: as §1, §2, §3, §4, §5

[5] = system: Aspergillus flavus (ATCC 5917); experiment: MIC on Potato Dextrose Agar; conditions: PDA agar, 25-30° C.
Description: (§6) The efficacy of antimicrobial compositions in accordance with aspects of the invention against the following organisms was determined as follows. The following organisms were incubated in the presence of varying concentrations of 9-decenoic acid (9-DA) on an agar surface: Aspergillus parasiticus (ATCC 56857), Trichoderma virens (ATCC 9645), Aspergillus flavus (ATCC 96045), Cladosporium cladosporiodes (ATCC 16022), Aspergillus flavus (ATCC 5917), Aspergillus oryzae (ATCC 10124), Aspergillus parasiticus (ATCC 13539), Ulocladium atrum (ATCC 52426), Candida albicans (ATCC 11651), Aspergillus niger (ATCC 11414).
(§7) Fungal spores were hydrated in 0.1% Tween 80 and then plated onto Potato Dextrose Agar (PDA) (Difco # 213400; Becton, Dickinson and Company, Sparks, Md.) and incubated at 25-30° C. for six (6) days. The spores were washed from the surface with 5 ml of 0.1% Tween 80 and enumerated.
(§8) PDA plates were prepared according to the manufacturer's instructions through sterilization. The agar was tempered to approximately 50° C. and filter sterilized. Antimicrobial compositions containing 9-DA were added by percent weight to molten autoclaved PDA media, with consideration of specific gravity (0.915 g/mL for 9-DA) and purity (98% for 9-DA). The agar was thoroughly mixed and poured into sterile petri plates and allowed to solidify.
(§9) The agar plates were inoculated with the spore solution to achieve 10^2 spores/plate. The plates were incubated at 25-30° C. in Ziploc bags with a wet paper towel to keep the moisture level high. The plates were examined for growth at 1, 2, 3, 4, 8, 11, 15, 17, 23, 29 and 31 days. The percent coverage of growth on the agar surface was recorded at each sample point.

[6] = system: Aspergillus flavus (ATCC 96045); experiment: MIC on Potato Dextrose Agar; conditions: PDA agar, 25-30° C.
Description: as §6, §7, §8, §9

[7] = system: Aspergillus niger (ATCC 11414); experiment: MIC on Potato Dextrose Agar; conditions: PDA agar, 25-30° C.
Description: as §6, §7, §8, §9

[8] = system: Aspergillus oryzae (ATCC 10124); experiment: MIC on Potato Dextrose Agar; conditions: PDA agar, 25-30° C.
Description: as §6, §7, §8, §9

[9] = system: Aspergillus parasiticus (ATCC 13539); experiment: MIC on Potato Dextrose Agar; conditions: PDA agar, 25-30° C.
Description: as §6, §7, §8, §9

[10] = system: Aspergillus parasiticus (ATCC 56857); experiment: MIC on Potato Dextrose Agar; conditions: PDA agar, 25-30° C.
Description: as §6, §7, §8, §9

[11] = system: Candida albicans (ATCC 11651); experiment: MIC on Potato Dextrose Agar; conditions: PDA agar, 25-30° C.
Description: as §6, §7, §8, §9

[12] = system: Cladosporium cladosporiodes (ATCC 16022); experiment: MIC on Potato Dextrose Agar; conditions: PDA agar, 25-30° C.
Description: as §6, §7, §8, §9

[13] = system: Trichoderma virens (ATCC 9645); experiment: MIC on Potato Dextrose Agar; conditions: PDA agar, 25-30° C.
Description: as §6, §7, §8, §9

[14] = system: Ulocladium atrum (ATCC 52426); experiment: MIC on Potato Dextrose Agar; conditions: PDA agar, 25-30° C.
Description: as §6, §7, §8, §9

[15] = Mueller-Hinton Broth, 20-24 h, 37° C.

SMILES: C=CCCCCCCCC(=O)O [9-decenoic acid]
- MIC [1, 15]: 0.0625%
- MBC ([1]; subculture on TSA): 0.0625%
- MIC [2, 15]: 0.125%
- MBC ([2]; subculture on TSA): 0.125%
- MIC [3]: 0.0625%
- MIC [4]: 0.0625%
- MIC [5]: 0.05%
- MIC [6]: 0.05%
- MIC [7]: 0.05%
- MIC [8]: 0.05%
- MIC [9]: 0.05%
- MIC [10]: 0.05%
- MIC [11]: 0.025%
- MIC [12]: 0.025%
- MIC [13]: 0.05%
- MIC [14]: 0.025%
